Source: patent US11827629B2, “CDGSH iron sulfur domain 2 activators and use thereof” (National Health Research Institutes, priority 2021, dated 2023)

Each compound was assayed on Cisd2 promoter with firefly luciferase reporter (assay: Cisd2-luciferase reporter assay in HEK293-CISD2 cells). Settings: Homo sapiens, 24 hours incubation, luciferase luminescence.
Format: cell-based
Experimental: A typical in vitro screening method includes the following steps: (i) obtaining an initial level of Cisd2 in a batch of human embryonic kidney cells 293 (HEK-293 cells) that express Cisd2, (ii) treating the batch of HEK-293 cells with a compound of this invention, and (iii) analyzing the level of Cisd2 after the treatment, thereby determining the potency of the compound as a Cisd2 activator.
Compounds 1-109 were tested for increasing the level of Cisd2 in human embryonic kidney cells 293 (HEK293), a transfected cell line expressing Cisd2, using the Cisd2-luciferase reporter assay as follows.
The transfected HEK293 cells stably expressed Cisd2 promoter with firefly luciferase reporter (HEK293-CISD2). They were kept in Dulbecco's modified Eagle's medium (DMEM) (Gibco, New York, NY, USA). Culture medium was supplemented with 10% heat-inactivated fetal bovine serum (FBS), 2 mM L-Glutamine, 1 mM sodium pyruvate, 0.1% MEM Non-Essential Amino Acids, 1 ug/ml puromycin and 1% penicillin/streptomycin (HyClone, Logan, UT, USA). The cells were maintained at 37° C. in an incubator (Thermo Fisher Scientific, New York, NY, USA) with an atmosphere of 5% CO2. The stably transfected cells were seeded in 384-well plates at a density of 3×10^3 cells/well. After incubation with tested compounds at 37° C. for 24 hours, ONE-Glo™ Luciferase Assay System (Promega, Madison, WI, USA) was added at room temperature for 5 minutes to detect any luciferase activity. Luminescence intensity was registered using plate reader Victor^2V (PerkinElmer, Boston, MA, USA).
EC50 values in this table are presented in three classes, i.e., A: <1 μM, B: 1 μM-5 μM, and C: 5 μM-10 μM.
In the case of `O=C(CS(=O)(=O)c1cc[n+]([O-])cc1)N1Cc2ccccc2C1` [Compound 44, 1-(1,3-dihydro-2H-isoindol-2-yl)-2-[(1-oxidopyridin-4-yl)sulfonyl]ethanone], the EC50 is reported as 5 to 10 µM.
`O=C(CS(=O)(=O)c1ccccc1)N1Cc2ccccc2C1` [Compound 45, 1-(1,3-dihydro-2H-isoindol-2-yl)-2-(phenylsulfonyl)-ethanone] showed an EC50 of under 1 µM.
Work on `O=C(CS(=O)(=O)c1cccs1)N1Cc2ccccc2C1` [Compound 46, 1-(1,3-dihydro-2H-isoindol-2-yl)-2-(thiophen-2-ylsulfonyl)ethanone] yielded an EC50 of under 1 µM.
With `O=C(CS(=O)(=O)Cc1ccccc1)N1Cc2ccccc2C1` [Compound 47, 2-(benzylsulfonyl)-1-(1,3-dihydro-2H-isoindol-2-yl)ethanone] the EC50 was 5 to 10 µM.
`O=C(CCS(=O)(=O)c1nccs1)N1Cc2ccccc2C1` [Compound 48, 1-(1,3-dihydro-2H-isoindol-2-yl)-3-(1,3-thiazol-2-ylsulfonyl)propan-1-one] gave an EC50 of under 1 µM.
Compound `O=C(CCS(=O)(=O)c1ccccn1)N1Cc2ccc(F)cc2C1` [Compound 49, 1-(5-fluoro-1,3-dihydro-2H-isoindol-2-yl)-3-(pyridin-2-ylsulfonyl)propan-1-one] has an EC50 of 1 to 5 µM.
`O=C(N1Cc2ccc(F)cc2C1)C(F)(F)S(=O)(=O)c1ccccn1` [Compound 50, 2,2-difluoro-1-(5-fluoro-1,3-dihydro-2H-isoindol-2-yl)-2-(pyridin-2-ylsulfonyl)ethanone] was tested, and the EC50 was under 1 µM.
`O=C1N[C@H]2[C@H](CS[C@H]2CCCCC(=O)Oc2ccc3c(c2)CN(C(=O)CS(=O)(=O)c2nccs2)C3)N1` [Compound 51, 2-[(1,3-thiazol-2-ylsulfonyl)acetyl]-2,3-dihydro-1H-isoindol-5-yl 5-[(3aS,4S,6aR)-2-oxohexahydro-1H-thieno[3,4-d]imidazol-4-yl]pentanoate] showed an EC50 of under 1 µM.
In the case of `O=C(N1Cc2ccccc2C1)C(F)(F)Sc1nccs1` [Compound 52, 1-(1,3-dihydro-2H-isoindol-2-yl)-2,2-difluoro-2-(1,3-thiazol-2-ylsulfanyl)ethanone], the EC50 is reported as under 1 µM.
`O=C(N1Cc2ccccc2C1)C(F)(F)S(=O)(=O)c1nccs1` [Compound 53, 1-(1,3-dihydro-2H-isoindol-2-yl)-2,2-difluoro-2-(1,3-thiazol-2-ylsulfonyl)ethanone] was tested, and the EC50 was under 1 µM.
In the case of `O=C(N1Cc2ccccc2C1)C(F)(F)[S+]([O-])c1nccs1` (stereo not shown) [Compound 54, 1-(1,3-dihydro-2H-isoindol-2-yl)-2,2-difluoro-2-(1,3-thiazol-2-ylsulfinyl)ethanone], the EC50 is reported as under 1 µM.
In the case of `O=C(CSc1ccccn1)N1Cc2ccc(O)cc2C1` [Compound 55, 1-(5-hydroxy-1,3-dihydro-2H-isoindol-2-yl)-2-(pyridin-2-ylsulfanyl)ethanone], the EC50 is reported as 5 to 10 µM.
For `O=C(CSc1cccc(F)c1)N1Cc2ccccc2C1` [Compound 56, 1-(1,3-dihydro-2H-isoindol-2-yl)-2-[(3-fluorophenyl)sulfanyl]ethanone], the EC50 was under 1 µM.
For `O=C(CSc1ccc(Cl)s1)N1Cc2ccccc2C1` [Compound 57, 2-[(5-chlorothiophen-2-yl)sulfanyl]-1-(1,3-dihydro-2H-isoindol-2-yl)ethanone], the EC50 was under 1 µM.
For `O=C(CSc1cc(F)ccc1F)N1Cc2ccccc2C1` [Compound 58, 2-[(2,5-difluorophenyl)sulfanyl]-1-(1,3-dihydro-2H-isoindol-2-yl)ethanone], the EC50 was under 1 µM.
In the case of `O=C(CSc1ccccc1F)N1Cc2ccccc2C1` [Compound 59, 1-(1,3-dihydro-2H-isoindol-2-yl)-2-[(2-fluorophenyl)sulfanyl]ethanone], the EC50 is reported as under 1 µM.
`O=C(CSc1ccc(F)cc1F)N1Cc2ccccc2C1` [Compound 60, 2-[(2,4-difluorophenyl)sulfanyl]-1-(1,3-dihydro-2H-isoindol-2-yl)ethanone] showed an EC50 of under 1 µM.
Compound `Nc1ccc(SCC(=O)N2Cc3ccccc3C2)cc1` [Compound 61, 2-[(4-aminophenyl)sulfanyl]-1-(1,3-dihydro-2H-isoindol-2-yl)ethanone] has an EC50 of under 1 µM.
Work on `Cc1ccc(SCC(=O)N2Cc3ccccc3C2)cc1` [Compound 62, 1-(1,3-dihydro-2H-isoindol-2-yl)-2-[(4-methylphenyl)sulfanyl]ethanone] yielded an EC50 of 5 to 10 µM.
For `O=C(CSc1ccccc1F)N1Cc2ccc(F)cc2C1` [Compound 63, 1-(5-fluoro-1,3-dihydro-2H-isoindol-2-yl)-2-[(2-fluorophenyl)sulfanyl]ethanone], the EC50 was under 1 µM.
Compound `O=C(CSc1ccccc1)N1Cc2ccc(F)cc2C1` [Compound 64, 1-(5-fluoro-1,3-dihydro-2H-isoindol-2-yl)-2-(phenylsulfanyl)ethanone] has an EC50 of under 1 µM.
Compound `O=C(CSc1ccccc1F)N1Cc2cc(F)c(F)cc2C1` [Compound 65, 1-(5,6-difluoro-1,3-dihydro-2H-isoindol-2-yl)-2-[(2-fluorophenyl)sulfanyl]ethanone] has an EC50 of under 1 µM.
`O=C(CSc1ccccc1)N1Cc2cccc(F)c2C1` [Compound 66, 1-(4-fluoro-1,3-dihydro-2H-isoindol-2-yl)-2-(phenylsulfanyl)ethanone] was tested, and the EC50 was under 1 µM.
`O=C(CSc1ccccc1Cl)N1Cc2ccccc2C1` [Compound 67, 2-[(2-chlorophenyl)sulfanyl]-1-(1,3-dihydro-2H-isoindol-2-yl)ethanone] was tested, and the EC50 was under 1 µM.
`O=C(CSc1cccc(Cl)c1Cl)N1Cc2ccccc2C1` [Compound 68, 2-[(2,3-dichlorophenyl)sulfanyl]-1-(1,3-dihydro-2H-isoindol-2-yl)ethanone] showed an EC50 of 1 to 5 µM.
Compound `Cc1nc(SCC(=O)N2Cc3ccccc3C2)sc1C` [Compound 69, 1-(1,3-dihydro-2H-isoindol-2-yl)-2-[(4,5-dimethyl-1,3-thiazol-2-yl)sulfanyl]ethanone] has an EC50 of 1 to 5 µM.
`Cn1ccc(SCC(=O)N2Cc3ccccc3C2)n1` [Compound 70, 1-(1,3-dihydro-2H-isoindol-2-yl)-2-[(1-methyl-1H-pyrazol-3-yl)sulfanyl]ethanone] was tested, and the EC50 was 1 to 5 µM.
In the case of `O=C(CSc1ncccc1F)N1Cc2ccccc2C1` [Compound 71, 1-(1,3-dihydro-2H-isoindol-2-yl)-2-[(3-fluoropyridin-2-yl)sulfanyl]ethanone], the EC50 is reported as under 1 µM.
`O=C(CSc1ncco1)N1Cc2ccccc2C1` [Compound 72, 1-(1,3-dihydro-2H-isoindol-2-yl)-2-(1,3-oxazol-2-ylsulfanyl)ethanone] gave an EC50 of under 1 µM.
For `O=C(CSc1cccc(F)n1)N1Cc2ccccc2C1` [Compound 73, 1-(1,3-dihydro-2H-isoindol-2-yl)-2-[(6-fluoropyridin-2-yl)sulfanyl]ethanone], the EC50 was 1 to 5 µM.
`N#Cc1ccc(SCC(=O)N2Cc3ccccc3C2)s1` [Compound 74, 5-{[2-(1,3-dihydro-2H-isoindol-2-yl)-2-oxoethyl]sulfanyl}thiophene-2-carbonitrile] showed an EC50 of under 1 µM.
With `O=C(CSc1ccc(CO)s1)N1Cc2ccccc2C1` [Compound 75, 1-(1,3-dihydro-2H-isoindol-2-yl)-2-{[5-(hydroxymethyl)thiophen-2-yl]sulfanyl}ethanone] the EC50 was under 1 µM.
`O=C(CSc1ccc(C(F)F)s1)N1Cc2ccccc2C1` [Compound 76, 2-{[5-(difluoromethyl)thiophen-2-yl]sulfanyl}-1-(1,3-dihydro-2H-isoindol-2-yl)ethanone] gave an EC50 of 1 to 5 µM.
`O=C(CSc1ccccn1)N1Cc2ccc(N3CCOCC3)cc2C1` [Compound 77, 1-[5-(morpholin-4-yl)-1,3-dihydro-2H-isoindol-2-yl]-2-(pyridin-2-ylsulfanyl)ethanone] gave an EC50 of 5 to 10 µM.
